Consider four molecules from US5132409A, “Macrocyclic chelating agents and chelates thereof” (Bracco Industria Chimica S.p.A., priority 1987, dated 1992).

Data set [1] is described as follows: Determination of relaxivity (MINISPEC PC 120 BRUKER, 20 MHz proton, 39° C.). As to conditions: pH 7.3, aqueous solvent, 0-5 mM; for Transverse relaxivity (R2): Carr, Purcell, Meiboom and Gill sequence; for Longitudinal relaxivity (R1): Inversion Recovery. The data set is classed as physicochemical. How it is done: Determination of the Relaxivity of the Compounds of the Present Invention
A) Apparatus: […] PC 120 (BRUKER)
B) Observation frequency:
39° C., with pre-thermostatization
of the NMR test tube for 10 min
at the operative temperature
in the range from 0 to 5 mM with the
following specific measuring points:
F) pH: 7.3, to be checked again
potentiometrically before the
relaxation measurement.
Longitudinal relaxivity (R1) measurements were calculated using the "Inversion Recovery" sequence with an 8 point minimum and a 3 parameter fit, according to the program provided for the […] 120 BRUKER instrument, by which measurements were taken.
Transverse relaxivity (R2) measurements were calculated using the sequence of Carr, Purcell, Meiboom and Gill, according to the program provided for the […] 120 BRUKER instrument, by means of which measurements were taken, adjusting the apparatus in such a way as to observe the decay of the signal to about 1/3 of the starting value, with a score number higher or equal to 10 and a 2 parameter fit.

The subject of data set [2] is mouse. In words: Determination of LD50 in the mouse by intravenous administration. It is filed as in vivo. To be noted: male and female mice, strain Crl:CD1(ICR)BR. The source says: Determination of LD50 in the Mouse by Intravenous Administration of the Compounds of the Present Invention
In table II are reported, as non-limiting examples, the LD50 values for compounds A and B of the present invention, in comparison with GdCl3 and with Gd/DTPA neutralized with N-methylglucamine.
*male and female mice were used, Strain: Crl:CD1(ICR)BR

The conditions of data set [3]: background statement in words; cited from earlier work.

For the molecule `CNC[C@H](O)[C@@H](O)[C@H](O)[C@H](O)CO.CNC[C@H](O)[C@@H](O)[C@H](O)[C@H](O)CO.O=C([O-])CN(CCN(CC(=O)[O-])CC(=O)O)CCN(CC(=O)[O-])CC(=O)O.[Gd+3]` [Gd/DTPA, reference compound], in data set [1], the “Transverse relaxivity (R2)” value is 5.15 ± 0.02 mM/s and the “Longitudinal relaxivity (R1)” value was 4.08 ± 0.01 mM/s. The “LD50 in the mouse” value in data set [2] is recorded as 4.8 (4.47-5.16) mmol/kg. Moreover, the “removal from the blood stream and from the lesions of the tissues under examination” value in data set [3] is “too quickly removed from the blood stream and from the lesions of the tissues under examination”.
For the molecule `[Cl][Gd]([Cl])[Cl]` [GdCl3, reference compound], the “LD50 in the mouse” value in data set [2] is 0.28 (0.24-0.32) mmol/kg.
For “D(-)-N-methylglucamine salt of Gd^(3+) /2-[1,4,7,10-tetraaza-4,7,10-tri(carboxymethyl)-cyclododecane-1-yl]-3-hydroxypropionic acid complex”, in data set [1], the “Transverse relaxivity (R2)” value worked out at 5.06 ± 0.01 mM/s and the “Longitudinal relaxivity (R1)” value is 3.72 ± 0.01 mM/s. In data set [2], the “LD50 in the mouse” value is 13.1 (12.2-14.1) mmol/kg.
“D(-)-N-methylglucamine salt of the Gd^(3+) /2-[1,4,7,10-tetraaza-4,7,10-tri(carboxymethyl)-cyclododecane-1-yl]-3-benzyloxypropionic acid complex”: in data set [1], the “Transverse relaxivity (R2)” value came out at 5.67 ± 0.02 mM/s and the “Longitudinal relaxivity (R1)” value worked out at 4.15 ± 0.01 mM/s. In addition, the “LD50 in the mouse” value in data set [2] is given as 8.8 (7.79-9.94) mmol/kg.
